One series deals with PDE 5 (Homo sapiens, UniProt O76074). In words: PDE 5 inhibition. The series is classed as biochemical.
Series [1] relates to health men. As to the kind of experiment: Safety Test 2: vital signs in supine position, Silodosin combination. The series is classed as in vivo, human. To be noted: for Diastolic blood pressure mean: the values are: Diastolic blood pressure mean. The protocol: (§1) The safety evaluation was performed by observing vital signs (diastolic blood pressure, pulse rate, body temperature), clinical laboratory testing, electrocardiogram, adverse reactions such as subjective symptom and objective symptom.

The subject of series [2] is health men. In words: Safety Test 1: vital signs in supine position, Tamsulosin combination. Format: in vivo, human. Conditions: for Diastolic blood pressure mean: the values are: Diastolic blood pressure mean. The procedure: as §1
Series [3] relates to smooth muscle of rat bladder. As to the kind of experiment: Relaxation of carbachol-contracted rat bladder tissue in organ bath. The series is classed as cell-based, Sprague-Dawley rat. Conditions: for percentage of relaxation degree: L-NAME or Tamsulosin 10^−4M where combined.
For series [4], the system named is smooth muscle of rat prostate. In words: Relaxation of phenylephrine-contracted rat prostatic tissue in organ bath, formula (I) and Tamsulosin. The series is classed as cell-based, Sprague-Dawley rat. The protocol:
Male Sprague-Dawley rat with 300-400 g of body weight was sacrificed and the prostate was extracted and transferred to Krebs-Henseleit buffer kept cold. The dorsolateral lobes of prostatic tissue were transected to separate prostatic tissue gland with size of 2×10 mm (4 tissues per a rat). The separated tissues were transferred to organ bath where 95% O2, and 5% CO2 were emitted and Krebs-Henseleit buffer (37° C.) was contained, both ends of the tissue gland were fixed to the bath floor and force transducer connected to polygraph(Grass Instruments) respectively. Each tissue was stabilized under 0.2 standard tension for 1 hour, and then treated by 1 μM of phenylephrine to induce the contraction of prostatic tissue. […] In Table 1, data were obtained by using four (4) tissue glands were used for each concentration of the drug, and the numerical value is mean ±standard error of the percentage of contracting degree (inverse proportion to percentage of relaxation degree).

A short description of series [5]: Physicochemical properties (pKa, solubility).
A short description of series [6]: Pharmacokinetic characteristics in the body. Format: in vivo.
Series [7] in a line: Safety Test 1: pharmacokinetics of the pyrazolopyrimidinone. The series is classed as in vivo. Conditions: male, human, plasma. The procedure:
The safety evaluation was performed by observing vital signs (diastolic blood pressure, pulse rate, body temperature), clinical laboratory testing, electrocardiogram, adverse reactions such as subjective symptom and objective symptom. In addition, the effect of drug interaction on pharmacokinetics of the pyrazolopyrimidinone was observed.

Series [8] relates to smooth muscle of rat prostate. As to the kind of experiment: Relaxation of contracted rat prostatic tissue in organ bath, formula (I) and Silodosin. The series is classed as cell-based, Sprague-Dawley rat. The procedure: Male Sprague-Dawley rat with 300-400 g of body weight was sacrificed and the prostate was extracted and transferred to Krebs-Henseleit buffer kept cold. The dorsolateral lobes of prostatic tissue were transected to separate prostatic tissue gland with size of 2×10 mm (4 tissues per a rat). The separated tissues were transferred to organ bath where 95% O2, and 5% CO2 were emitted and Krebs-Henseleit buffer (37° C.) was contained, both ends of the tissue gland were fixed to the bath floor and force transducer connected to polygraph(Grass Instruments) respectively.
Each tissue was stabilized for 1 hour, and then treated by 10^−5M carbachol to induce the contraction of prostatic tissue.
In Table 3, data were obtained by using four (4) tissue glands were used for each concentration of the drug, and the numerical value is mean ± standard error of the percentage of contracting degree (inverse proportion to relaxation degree).

The nature of series [9]: Safety Test 2: pharmacokinetic parameters. Format: in vivo. To be noted: male, human, plasma. The protocol: The safety evaluation was performed by observing vital signs (diastolic blood pressure, pulse rate, body temperature), clinical laboratory testing, electrocardiogram, adverse reactions such as subjective symptom and objective symptom. In addition, the effect of drug-drug interaction on pharmacokinetics of the pyrazolopyrimidinone was observed.

For a further series, the system named is patients. Conditions: cited from earlier work.
Where [10] appears, read: Group B: placebo + the pyrazolopyrimidinone.
Where [11] appears, read: Group D: administered with Tamsulosin.

The structures appear in SMILES notation. Read-outs that look alike come from different tables or passages of the source.

Regarding `CCCOc1ccc(S(=O)(=O)NCCC2CCCN2C)cc1-c1nc2c(CCC)nn(C)c2c(=O)[nH]1` (stereo not drawn) [Compound of formula (I), 5-[2-propyloxy-5-(1-methyl-2-pyrolidinylethylamidosulphonyl)phenyl]-1-methyl-propyl-1,6-dihydro-7H-pyrazolo (4,3-d)pyrimidin-7-one], on PDE 5, the “inhibition of PDE 5” value is recorded as “inhibits PDE 5 strongly”. For the same compound, the Pulse rate mean in the series with health men [1] is listed as 61.4; with health men [2], 60.2. The Diastolic blood pressure mean with health men [1] is 62.2 mmHg; in the series on health men [2], 61.6 mmHg. Moreover, the “percentage of relaxation degree” value in [3] (Compound of formula (I) 10^−4M) is 17.4 ± 3.7%; in series [3] (Compound of formula (I) 10^−4M, listed as pyrazolopyrimidinone of formula (I)), “about 17.4%”; in series [3] (Compound of formula (I) 10^−5M) it was 7.2 ± 1.6%; in series [3] (Compound of formula (I) 10^−6M) it was 2.0 ± 1.1%; in series [3] (Compound of formula (I) 10^−7M), 0.0 ± 0.0%; in series [3] (Compound of formula (I) 10^−8M, 10^−5M carbachol) it was 0.0 ± 0.0%. Further, the “concentration at which the relaxation effect began to be represented” value in [3] (administered alone) is given as 10^−6 M. Further, the “Contraction degree (%)” value in [4] (Compound of formula (I) 3 μM, Tamsulosin 0 nM, 1 μM phenylephrine) was found to be 92.6 ± 2.2%; in series [4] (Compound of formula (I) 10 μM, Tamsulosin 0 nM), 77.1 ± 2.5%; in series [4] (Compound of formula (I) 30 μM, Tamsulosin 0 nM), 62.2 ± 3.1%; in [8] (Compound of formula (I) 3 μM, Silodosin 0 nM), 92.6 ± 2.2%; in series [8] (Compound of formula (I) 10 μM, Silodosin 0 nM) it was 77.1 ± 2.5%; in [8] (Compound of formula (I) 30 μM, Silodosin 0 nM), 62.2 ± 3.1%. For the same compound, the pKa1 result in series [5] is “about 6.5”. Moreover, in series [5], the pKa2 entry is on record as “about 12.5”. In addition, the solubility result in series [5] is “improved solubility”. Further, in [5] (acetic acid, methanol or chloroform), the “solubility to acetic acid, methanol or chloroform” value is recorded as “high solubility”. In addition, the solubility to water entry in series [5] (water) is recorded as “low solubility”. The “half life in the body compared with the sildenafil-type citrate and vardenafil-type hydrochloride named” value in series [6] (in the body) is on record as “three times longer half life”. For the same compound, in series [6] (in vivo), the absorption result is “rapid absorption”. For the same compound, the bioavailability entry in series [6] (in vivo) is listed as “high bioavailability”. Besides, the “distribution volume in the body” value in [6] (in vivo) is recorded as “high distribution volume”. Also, the AUC(0-inf) in [7] (setting [10]) amounted to 4730 ± 1260 ng·h/mL; in series [7] (setting [11]), 4910 ± 1260 ng·h/mL; in [9] (Group A: placebo + the pyrazolopyrimidinone, read-out: AUCinf Ud) it was 4820 ± 1320 ng·h/mL; in series [9] (Group C: Silodosin + the pyrazolopyrimidinone, read-out: AUCinf Ud), 4940 ± 1260 ng·h/mL. The Cmax in series [7] (setting [10]) is 617 ± 169 ng/mL; in [7] (setting [11]), 624 ± 200 ng/mL; in series [9] (Group A: placebo + the pyrazolopyrimidinone, read-out: Cmax Ud), 627 ± 158 ng/mL; in [9] (Group C: Silodosin + the pyrazolopyrimidinone, read-out: Cmax Ud) it was 660 ± 196 ng/mL. In addition, the time to peak (Tmax) was found to be 1.5 h in series [7] (setting [10]); 1.1 h in series [7] (setting [11]); 1.5 h in series [9] (Group A: placebo + the pyrazolopyrimidinone, read-out: Tmax (h) Ud); 1.3 h in series [9] (Group C: Silodosin + the pyrazolopyrimidinone, read-out: Tmax (h) Ud). For the same compound, the half-life in series [7] (setting [10]) is 9.7 ± 1.7 h; in series [7] (setting [11]) it was 9.9 ± 2.3 h.
For `C[C@H](Cc1cc2c(c(C(N)=O)c1)N(CCCO)CC2)NCCOc1ccccc1OCC(F)(F)F` [Silodosin, reference compound], the Pulse rate mean with health men [1] came out at 64.2. Further, the Diastolic blood pressure mean with health men [1] came out at 62.3 mmHg. Moreover, the “Contraction degree (%)” value in series [8] (Compound of formula (I) 0 μM, Silodosin 0.1 nM) is recorded as 90.8 ± 1.4%; in series [8] (Compound of formula (I) 0 μM, Silodosin 1 nM) it was 82.0 ± 1.7%; in series [8] (Compound of formula (I) 0 μM, Silodosin 10 nM) it was 46.9 ± 1.6%. Also, the AUC(0-inf) stood at 110 ± 17.6 ng·h/mL in series [9] (AUCinf Silodosin, Group B: placebo + Silodosin) and 132 ± 25.2 ng·h/mL in series [9] (AUCinf Silodosin, Group C: Silodosin + the pyrazolopyrimidinone). Further, the Cmax in series [9] (Cmax Silodosin, Group B: placebo + Silodosin) stood at 31.1 ± 7.2 ng/mL; in [9] (Cmax Silodosin, Group C: Silodosin + the pyrazolopyrimidinone) it was 35.2 ± 7.8 ng/mL. The Tmax was 1.4 h in [9] (Tmax (h) Silodosin, Group B: placebo + Silodosin) and 1.7 h in series [9] (Tmax (h) Silodosin, Group C: Silodosin + the pyrazolopyrimidinone).
As for `CCOc1ccccc1OCCN[C@H](C)Cc1ccc(OC)c(S(N)(=O)=O)c1` [Tamsulosin, (R)-5-(2-(2-(2-ethoxyphenoxy)ethylamino)propyl)-2-methoxy benzensulfonamide, reference compound], the Pulse rate mean in the series with health men [2] was 57.7. In addition, the Diastolic blood pressure mean in the series with health men [2] was 63 mmHg. Moreover, the “Contraction degree (%)” value in series [4] (Compound of formula (I) 0 μM, Tamsulosin 0.25 nM) is recorded as 90.8 ± 1.4%; in series [4] (Compound of formula (I) 0 μM, Tamsulosin 1 nM), 78.8 ± 2.0%; in [4] (Compound of formula (I) 0 μM, Tamsulosin 4 nM), 43.6 ± 4.2%. Besides, the “side effect in combination of PDE 5 inhibitors” value in the series with patients (administered in combination of PDE 5 inhibitors) is “orthostatic hypotension”.
For the compound `COc1cc2nc(N3CCN(C(=O)C4CCCO4)CC3)nc(N)c2cc1OC` (stereo not drawn) [Terazocin], the “side effect in combination of PDE 5 inhibitors” value in the series with patients (human, in vivo) was “orthostatic hypotension”.
On to `CCCc1nc(C)c2c(=O)[nH]c(-c3cc(S(=O)(=O)N4CCN(CC)CC4)ccc3OCC)nn12` [Vardenafil], for which, in the series on patients (combination with α-adrenergic receptor antagonist), the “blood pressure effect in combination of α-adrenergic receptor antagonist” value is reported as “some patients shows low blood pressure”.

For orientation: Cmax means the highest concentration seen after dosing. By Tmax is commonly meant the time from dosing to the highest level. The term half-life denotes the time in which the quantity being followed falls by half.

The values above are taken from US20100210668A1, “COMPOSITION AND METHOD FOR TREATMENT OR PREVENTION OF BENIGN PROSTATIC HYPERPLASIA AND LOWER URINARY TRACT SYMPTOMS” (DONG-A PHARM. CO., LTD., priority 2007, published 2010).
